Literature values in patent US9289440B2, “Intravenous formulation with water-soluble cocrystals of acetylsalicylic acid and theanine” (THEAPRIN PHARMACEUTICALS INC., priority 2009, dated 2016).
Entries after “also recorded” stand apart in the source; their conditions may differ.

Details: FDA Reports 2006-2008, single patient reports

CC(=O)Oc1ccccc1C(=O)O [Aspegic, lysine acetylsalicylate]
side effect after drug was administered: cardio-respiratory arrest and ventricular fibrillation and died; also recorded: angina pectoris and recovered
